The results in this text go back to patent US20190071796A1, “PROCESS AND APPARATUS FOR MAKING ALIGNED OR TWISTED ELECTROSPUN FIBERS AND DEVICES” (The Johns Hopkins University, priority 2016, published 2019).

This series is described as follows: In vitro release of sunitinib from PLGA nanofiber-based mesh. The class given is physicochemical. The following applies: 10% sunitinib/PLGA (w/w) (FIG. 14).

On to `CCN(CC)CCNC(=O)c1c(C)[nH]c(/C=C2\C(=O)Nc3ccc(F)cc32)c1C` [sunitinib, Sunitinib malate], for which the “duration of in vitro sustained release” value amounted to 30 days.
